Residue numbers refer to the chain shown, from its start.
Legend:
Type in all cases: cell-based
[1] = test system: T1, Nonstructural protein 5A (Hepatitis C virus), Q5L478 [Y93H]; assay: Inhibition of NS5A Y93H mutant in HCV genotype 1a infected in HuH7 replicon cells assessed as decrease in viral replication after 3 days by RT-PCR method; details: Hepatitis C virus subtype 1a
T1 sequence (whole entry): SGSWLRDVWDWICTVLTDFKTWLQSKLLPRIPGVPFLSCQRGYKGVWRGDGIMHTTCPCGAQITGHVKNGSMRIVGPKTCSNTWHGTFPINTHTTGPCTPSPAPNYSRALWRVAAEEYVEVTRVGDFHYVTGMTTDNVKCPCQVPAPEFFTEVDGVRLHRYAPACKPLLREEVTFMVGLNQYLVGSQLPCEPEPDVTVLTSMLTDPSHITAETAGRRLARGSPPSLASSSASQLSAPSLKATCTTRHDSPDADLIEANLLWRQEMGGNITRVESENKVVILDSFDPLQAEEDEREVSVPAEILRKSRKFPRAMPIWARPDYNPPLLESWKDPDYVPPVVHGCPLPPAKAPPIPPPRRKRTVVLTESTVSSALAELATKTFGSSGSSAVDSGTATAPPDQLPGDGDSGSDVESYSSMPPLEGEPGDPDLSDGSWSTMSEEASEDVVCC

[2] = test system: Hepatitis C virus subtype 1a; assay: Resistance ratio of EC90 for NS5A Y93H mutant in HCV genotype 1a infected in HuH7 replicon cells to EC90 for NS5A in HCV genotype 1a infected in HuH7 replicon cells
[3] = Resistance ratio of EC90 for NS5A in HCV genotype 4a infected in HuH7 replicon cells to EC90 for NS5A in HCV genotype 1a infected in HuH7 replicon cells
[4] = target: T2, Nonstructural protein 5A (Hepatitis C virus) (UniProt Q5L478); assay: Inhibition of NS5A L31V mutant in HCV genotype 1a infected in HuH7 replicon cells assessed as decrease in viral replication after 3 days by RT-PCR method; details: Hepatitis C virus subtype 1a
T2 sequence (whole entry): T1 sequence (whole entry) with H93Y

[5] = target: T2, Nonstructural protein 5A (Hepatitis C virus); assay: Inhibition of NS5A in HCV genotype 3a infected in HuH7 replicon cells assessed as decrease in viral replication after 3 days by RT-PCR method; details: Hepatitis C virus subtype 3a
[6] = target: T2, Nonstructural protein 5A (Hepatitis C virus); assay: Inhibition of NS5A L31M mutant in HCV genotype 2b infected in HuH7 replicon cells assessed as decrease in viral replication after 3 days by RT-PCR method; details: Hepatitis C virus subtype 2b
[7] = Resistance ratio of EC90 for NS5A L31M mutant in HCV genotype 2b infected in HuH7 replicon cells to EC90 for NS5A in HCV genotype 1a infected in HuH7 replicon cells
[8] = target: T2, Nonstructural protein 5A (Hepatitis C virus); assay: Inhibition of NS5A in HCV genotype 1a infected in HuH7 replicon cells assessed as decrease in viral replication after 3 days by RT-PCR method; details: Hepatitis C virus subtype 1a
[9] = Resistance ratio of EC90 for NS5A in HCV genotype 1b infected in HuH7 replicon cells to EC90 for NS5A in HCV genotype 1a infected in HuH7 replicon cells
[10] = test system: Hepatitis C virus subtype 1a; assay: Resistance ratio of EC90 for NS5A L31V mutant in HCV genotype 1a infected in HuH7 replicon cells to EC90 for NS5A in HCV genotype 1a infected in HuH7 replicon cells
[11] = Resistance ratio of EC90 for NS5A in HCV genotype 3a infected in HuH7 replicon cells to EC90 for NS5A in HCV genotype 1a infected in HuH7 replicon cells
[12] = target: T2, Nonstructural protein 5A (Hepatitis C virus); assay: Inhibition of NS5A in HCV genotype 4a infected in HuH7 replicon cells assessed as decrease in viral replication after 3 days by RT-PCR method; details: Hepatitis C virus subtype 4a
[13] = target: T2, Nonstructural protein 5A (Hepatitis C virus); assay: Inhibition of NS5A in HCV genotype 1b infected in HuH7 replicon cells assessed as decrease in viral replication after 3 days by RT-PCR method; details: Hepatitis C virus subtype 1b

| SMILES | EC90 [1] [pM] | Ratio [2] | Ratio [3] | EC90 [4] [pM] | EC90 [5] [pM] | EC90 [6] [pM] | Ratio [7] | EC90 [8] [pM] | Ratio [9] | Ratio [10] | Ratio [11] | EC90 [12] [pM] | EC90 [13] [pM] |
| --- | --- | --- | --- | --- | --- | --- | --- | --- | --- | --- | --- | --- | --- |
| CCCc1ccc([C@@H]2Oc3cc(-c4cnc([C@@H]5CCCN5C(=O)[C@@H](NC(=O)OC)C(C)C)[nH]4)cc(F)c3-c3cc4cc(-c5cnc([C@@H]6CCCN6C(=O)[C@@H](NC(=O)OC)C6CCOCC6)[nH]5)ccc4n32)s1 | 9 | < 10 | < 10 | 3 | 5 | 12 | < 10 | 2 | < 10 | < 10 | < 10 | 2 | 6 |
| COC(=O)N[C@H](C(=O)N1CCC[C@H]1c1ncc(-c2cc(F)c3c(c2)O[C@@H](c2ccc(C(F)(F)F)s2)n2c-3cc3cc(-c4cnc([C@@H]5CCCN5C(=O)[C@@H](NC(=O)OC)C5CCOCC5)[nH]4)ccc32)[nH]1)C(C)C | 23 | < 10 | < 10 | 5 | 6 | 10 | < 10 | 3 | < 10 | < 10 | < 10 | 3 | 5 |
| COC(=O)N[C@H](C(=O)N1CCC[C@H]1c1ncc(-c2cc(F)c3c(c2)O[C@@H](c2cc4c(s2)CCC4)n2c-3cc3cc(-c4cnc([C@@H]5CCCN5C(=O)[C@@H](NC(=O)OC)C5CCOCC5)[nH]4)ccc32)[nH]1)C(C)C | 39 | < 10 | < 10 | 13 | 22 | 64 | < 10 | 5 | < 10 | < 10 | < 10 | 4 | 5 |

From ChEMBL document CHEMBL4177770, “Discovery of MK-6169, a Potent Pan-Genotype Hepatitis C Virus NS5A Inhibitor with Optimized Activity against Common Resistance-Associated Substitutions” (J Med Chem, 2018)
